Legend:
Type in all cases: cell-based, Escherichia coli
[1] = tested on: EKO-35 araC::mdtEF Pore; experiment: MIC susceptibility profiling, porinated efflux platform
In short: (§1)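 MIC values come from background-corrected OD600 readings (pre-incubation OD subtracted) after 18 h at 37 °C and 900 rpm in MHB II. Compounds were tested in duplicate as 2-fold dilutions. The inoculum came from 18 h LB cultures adjusted to OD600 ~1.0 and diluted 1/2000, and the pore-bearing strains were vancomycin-checked beforehand.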

[2] = tested on: EKO-35 araC::mdtBC Pore; experiment: as above
In short: as §1

[3] = tested on: EKO-35 araC::acrB Pore; experiment: as above
In short: as §1

[4] = tested on: EKO-35 araC::mdtEF; experiment: MIC susceptibility profiling, efflux platform
In short: (§2)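 Overnight LB cultures were grown at 37 °C with aeration, then washed into PBS, pH 7.4, to OD600 ~1.0. A 1/2000 dilution in MHB II was exposed to compound dilution series for 18 h at 37 °C. The MIC was taken from corrected OD600.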

[5] = tested on: EKO-35 araC::macAB; experiment: MIC susceptibility profiling, efflux platform
In short: as §2

[6] = tested on: EKO-35 araC::acrD; experiment: MIC susceptibility profiling, efflux platform
In short: as §2

[7] = tested on: EKO-35 araC::mexCD (MexCD from P. aeruginosa); experiment: MIC susceptibility profiling, efflux platform
In short: as §2

[8] = tested on: EKO-35 araC::mdtBC; experiment: MIC susceptibility profiling, efflux platform
In short: as §2

[9] = tested on: EKO-35 araC::acrEF; experiment: MIC susceptibility profiling, efflux platform
In short: as §2

[10] = tested on: EKO-35 araC::acrBD408A; experiment: MIC susceptibility profiling, efflux platform
In short: as §2

[11] = tested on: EKO-35 araC::emrKY; experiment: MIC susceptibility profiling, efflux platform
In short: as §2

[12] = tested on: EKO-35 araC::emrAB; experiment: MIC susceptibility profiling, efflux platform
In short: as §2

[13] = tested on: EKO-35 araC::acrB; experiment: MIC susceptibility profiling, efflux platform
In short: as §2

[14] = tested on: EKO-35-Pore; experiment: MIC susceptibility profiling, porinated strain
In short: as §1

[15] = tested on: E. coli EKO-35; experiment: microbe, parasite or virus in culture
In short: as §2

[16] = tested on: wild-type E. coli K-12 str. BW25113; experiment: microbe, parasite or virus in culture; settings: technical duplicate
In short: as §2

[17] = tested on: E. coli ΔtolC; experiment: microbe, parasite or virus in culture; settings: technical duplicate
In short: as §2

[18] = tested on: ΔtolC-Pore; experiment: microbe, parasite or virus in culture; settings: technical duplicate
In short: as §1

[19] = tested on: wild-type (WT) K-12-Pore; experiment: microbe, parasite or virus in culture; settings: technical duplicate
In short: as §1

[20] = Table 14A, porinated, technical duplicate
[21] = Table 13A, non-porinated, technical duplicate
[22] = Table 13B, non-porinated, technical duplicate

C[n+]1c2cc(N)ccc2cc2ccc(N)cc21.[Cl-] [acriflavine]
Fold changes of MICs ([1]; EKO-35 araC::mdtEF Pore compared to EKO-35-Pore): 2 fold | Minimum inhibitory concentration, EKO-35 araC::mdtEF Pore [1, 20]: 0.195 µg/mL | Fold changes of MICs ([2]; EKO-35 araC::mdtBC Pore compared to EKO-35-Pore): 1 fold | Minimum inhibitory concentration ([2]; EKO-35 araC::mdtBC Pore, technical duplicate): 0.098 µg/mL | Fold changes of MICs ([3]; EKO-35 araC::acr-B Pore compared to EKO-35-Pore): 16 fold | Minimum inhibitory concentration, EKO-35 araC::acrB Pore [3, 20]: 1.563 µg/mL | Fold change of MICs ([4]; EKO-35 araC::mdtEF compared to EKO-35): 2 fold | Minimum Inhibitory Concentration, EKO-35 araC::mdtEF [4, 21]: 0.195 µg/mL | Fold change of MICs ([5]; EKO-35 araC::macAB compared to EKO-35): 1 fold | Minimum Inhibitory Concentration, EKO-35 araC::macAB [5, 22]: 0.098 µg/mL | Fold change of MICs ([6]; EKO-35 araC::acrD compared to EKO-35): 2 fold | Minimum Inhibitory Concentration, EKO-35 araC::acrD [6, 21]: 0.195 µg/mL | Fold change of MICs ([7]; EKO-35 araC::mexCD compared to EKO-35): 8 fold | Minimum Inhibitory Concentration, EKO-35 araC::mexCD [7, 22]: 0.781 µg/mL | Fold change of MICs ([8]; EKO-35 araC::mdtBC compared to EKO-35): 1 fold | Minimum Inhibitory Concentration, EKO-35 araC::mdtBC [8, 22]: 0.098 µg/mL | Fold change of MICs ([9]; EKO-35 araC::acrEF compared to EKO-35): 8 fold | Minimum Inhibitory Concentration, EKO-35 araC::acrEF [9, 21]: 0.781 µg/mL | Fold change of MICs ([10]; EKO-35 araC::acrBD408A compared to EKO-35): 1 fold | Minimum Inhibitory Concentration, EKO-35 araC::acrBD408A [10, 22]: 0.098 µg/mL | Fold change of MICs ([11]; EKO-35 araC::emrKY compared to EKO-35): 1 fold | Minimum Inhibitory Concentration, EKO-35 araC::emrKY [11, 22]: 0.098 µg/mL | Fold change of MICs ([12]; EKO-35 araC::emrAB compared to EKO-35): 1 fold | Minimum Inhibitory Concentration, EKO-35 araC::emrAB [12, 22]: 0.098 µg/mL | Fold change of MICs ([13]; EKO-35 araC::acrB compared to EKO-35): 32 fold | Minimum Inhibitory Concentration, EKO-35 araC::acrB [13, 21]: 3.125 µg/mL | restoration of resistance to wild-type levels by acrB alone ([13]; overexpression of acrB in EKO-35): did not restore resistance to wild-type levels | Fold changes of MICs ([14]; EKO-35-Pore compared to EKO-35-Pore (reference)): 1 fold | Minimum inhibitory concentration (MIC), Pore EKO-35 ([14]; Table 10, with pore, technical duplicate): 0.098 µg/mL | Minimum inhibitory concentration, EKO-35-Pore [14, 20]: 0.098 µg/mL | susceptibility of EKO-35 compared with the ΔtolC mutant [15]: more susceptible | Fold change of MICs ([15]; EKO-35 compared to EKO-35 (reference)): 1 fold | Minimum inhibitory concentration (MIC), EKO-35 ([15]; Table 10, without pore, technical duplicate): 0.098 µg/mL | Minimum Inhibitory Concentration, EKO-35 [15, 21]: 0.098 µg/mL | Minimum inhibitory concentration (MIC), K-12 ([16]; Table 10, without pore): 50 µg/mL | Minimum Inhibitory Concentration, K-12 ([16]; Table 13A, non-porinated): 50 µg/mL | Minimum inhibitory concentration (MIC), ΔtolC ([17]; Table 10, without pore): 3.125 µg/mL | Minimum Inhibitory Concentration, ΔtolC ([17]; Table 13A, non-porinated): 3.125 µg/mL | Minimum inhibitory concentration (MIC), Pore ΔtolC ([18]; Table 10, with pore): 3.125 µg/mL | Minimum inhibitory concentration, ΔtolC-Pore ([18]; Table 14A, porinated): 3.125 µg/mL | Minimum inhibitory concentration (MIC), Pore K-12 ([19]; Table 10, with pore): 50 µg/mL | Minimum inhibitory concentration, K-12 (WT)-Pore ([19]; Table 14A, porinated): 50 µg/mL

— patent US20230407243A1, “GENETIC PLATFORM TO INVESTIGATE THE FUNCTIONS OF BACTERIAL DRUG EFFLUX PUMPS” (priority 2022, published 2023)
